The values below come from patent US11091815B2, “Integrated methods for treating lignocellulosic material” (VIRDIA, LLC, priority 2015, dated 2021).

Molecules are shown by their SMILES. Read-outs that look alike come from different tables or passages of the source.

This series in a line: Partition coefficient in a two phase system of water and MEK. The series is classed as physicochemical. On the procedure:
Water and methylethyl ketone (MEK) were shaken for several minutes to allow saturation of each phase. The phases were separated. An excess amount of fumaric acid was stirred at 40° C. in each phase for 5 hours in a closed container. A sample of the solution was diluted with water and filtered. The concentration of fumaric acid was determined by HPLC by injecting 1-20 μL onto a Bio-Rad Aminex HPX-87H 7.2 mm column, using 0.003 M H2SO4 as eluent, flow rate 0.6 mL/min, temperature 65° C., and an RI detector. The saturated solution was held in a thermostated bath at 25° C., 10° C., 4° C. and 0° C. and allowed to equilibrate at each temperature. A sample of each solution was taken, diluted with water and injected onto the HPLC to determine fumaric acid concentration. Similarly, excess amounts of fumaric acid and Ca(OH)2 were shaken with each phase and the concentration of fumaric acid determined by HPLC in a diluted, filtered sample.
An excess amount of fumaric acid was shaken overnight at 4° C. in a biphasic system of water and MEK. The fumaric acid concentration in each phase was determined by HPLC as described in Example 4. Similarly, excess amounts of both fumaric acid and calcium hydroxide were equilibrated with a biphasic system of water and MEK. The partition coefficient was calculated as:
[formula] K was determined to be 8.6 for fumaric acid and 0.5 for calcium fumarate.

Consider `O=C([O-])/C=C/C(=O)[O-].[Ca+2]` [calcium fumarate], for which, for the setting “biphasic system of water and MEK, excess solid shaken overnight at 4° C., concentration in each phase by HPLC, calcium fumarate: excess fumaric acid and calcium hydroxide”, the “partition coefficient K” value came out at 0.5.

As for `O=C(O)/C=C/C(=O)O` [fumaric acid], the “partition coefficient K” value is listed as 8.6.
